Results: patent US11541057B2, “Thienopyrimidinone NMDA receptor modulators and uses thereof” (Cadent Therapeutics, Inc., priority 2015, dated 2023)

Biological target: T1, NMDA receptor GRIN1/GRIN2B (NR2B) expressed in HEK293 cells (Homo sapiens, UniProt Q13224)
T1 construct: host or cells: HEK293
Experiment: Reversal of Ro 25-6981-mediated suppression of the Ca2+ response (fluo-8 fluorescence, FDSS) in HEK293 cells expressing GRIN1 and GRIN2B
Assay type: cell-based
Settings: % reversal=100*(R−Rneg)/(Rpos−Rneg) of Ro 25-6981 suppression of co-agonist (glutamate/glycine) Ca2+ response, 10 min pre-incubation, compound concentration not given
Procedure: HEK293 cells with constructs conferring stable expression of the GRIN1 gene and tetracycline-inducible expression of the GRIN2B gene (Chantest, Cleveland, Ohio) are grown to ˜75% confluence in tissue culture flasks at 37° C., 5% CO2. NR2B expression is induced by overnight incubation with 0.3-0.4 μg/ml tetracycline in the presence of 2.5 mM ARL-15896 at 37° C., followed by moving to 30° C. for 3-5 hours. Cells are next harvested using TripleExpress™ (Life Technologies, Carlsbad, Calif.) according to the manufacturer's instructions, first removing culture medium, rinsing with Dulbecco's phosphate buffered saline (Ca^2+ and Mg^2+-free), and then adding the TripleExpress™ reagent. Harvested cells are spun down, washed twice in Ca^2+- and Mg^2+-free Hank's Balanced Salt Solution with 20 mM HEPES and 10 mM glucose, pH 7.4 (HHnoCa solution), and counted with viability assessed using Trypan Blue. Cells are loaded with fluo-8 Ca^2+-sensitive dye in HHnoCa solution according to the manufacturer's directions (AAT Bioquest, Sunnyvale, Calif.), incubating at 37° C. for 20 minutes followed by 25 minutes at 22-25° C. After a wash in HHnoCa to remove extracellular dye, cells are resuspended in HHnoCa and plated at […] cells per well in a volume of 25 μl/well in 384 well black-wall, clear bottom plates (Hamamatsu, Middlesex, N.J.). Plates are then centrifuged to create a monolayer in the wells and stored in the dark until used.
Prior to analysis, compound plates are prepared with each compound at 6× the final desired concentration. From stock solutions at 10 mM in 100% DMSO, compounds are spotted in the desired amounts using an ECHO liquid handler (Labcyte, Sunnyvale, Calif.) into wells of a 384-well plate and then diluted with 50 μl of HHnoCa containing 750 nM Ro 25-6981 and 120 μM 5,7-dichlorokynurenic acid (both purchased from Tocris Bioscience (Bristol, England) and maintained as 10 mM stock solutions in 100% DMSO). To insure complete compound dissolution, these plates are then placed in an orbital shaker for at least one hour. Also prepared prior to the assay is a co-agonist plate containing HHnoCa with 240 μM glutamate, 2.4 mM glycine, and 7.2 mM CaCl2, which is 2.4× the desired final concentration of each reagent. Both the compound plate and co-agonist plate are 384-well polypropylene plates from Thermo Fisher Scientific, Waltham, Mass.
The assay is performed by first adding 10 μl solution from each well of the compound plate described above to the cell plate using a CyBiWell liquid handler (Analytik Jena AG, Jena, Germany), followed by 10 minutes pre-incubation in the dark. Cell plates are then loaded onto a Hamamatsu FDSS 6000 plate reader. After a 30-second baseline, 25 μl is added to each well from the co-agonist plate, and the fluorescence signal is recorded for another 2 minutes. FDSS software applies shading and autofluorescence correction, and resultant raw fluorescence measurements are exported in the form of a fluorescence ratio for each well to its own reading at time zero in the experiment. In each plate, negative control wells consist of wells where Ro 25-6981 and 5,7 dichlorokynurenic acid are present and co-agonist is applied in the absence of any added assay compound. Under these conditions, the Ca^2+ response to co-agonist is suppressed. Positive control wells also present in each plate contain 5,7 dichlorokynurenic acid but no Ro 25-6981, so that co-agonist addition results in a large Ca^2+ response. Compounds tested are evaluated on the basis of their ability to reverse the suppression of the Ca^2+ response mediated by Ro 25-6981, which is quantified as % reversal=100*(R−Rneg)/(Rpos−Rneg) where R is the fluorescence ratio for the test compound at the end of the experiment and Rneg and Rpos are the end ratios for the negative and positive controls, respectively. […]

T1 sequence (Q13224 27-1484, other chains not shown): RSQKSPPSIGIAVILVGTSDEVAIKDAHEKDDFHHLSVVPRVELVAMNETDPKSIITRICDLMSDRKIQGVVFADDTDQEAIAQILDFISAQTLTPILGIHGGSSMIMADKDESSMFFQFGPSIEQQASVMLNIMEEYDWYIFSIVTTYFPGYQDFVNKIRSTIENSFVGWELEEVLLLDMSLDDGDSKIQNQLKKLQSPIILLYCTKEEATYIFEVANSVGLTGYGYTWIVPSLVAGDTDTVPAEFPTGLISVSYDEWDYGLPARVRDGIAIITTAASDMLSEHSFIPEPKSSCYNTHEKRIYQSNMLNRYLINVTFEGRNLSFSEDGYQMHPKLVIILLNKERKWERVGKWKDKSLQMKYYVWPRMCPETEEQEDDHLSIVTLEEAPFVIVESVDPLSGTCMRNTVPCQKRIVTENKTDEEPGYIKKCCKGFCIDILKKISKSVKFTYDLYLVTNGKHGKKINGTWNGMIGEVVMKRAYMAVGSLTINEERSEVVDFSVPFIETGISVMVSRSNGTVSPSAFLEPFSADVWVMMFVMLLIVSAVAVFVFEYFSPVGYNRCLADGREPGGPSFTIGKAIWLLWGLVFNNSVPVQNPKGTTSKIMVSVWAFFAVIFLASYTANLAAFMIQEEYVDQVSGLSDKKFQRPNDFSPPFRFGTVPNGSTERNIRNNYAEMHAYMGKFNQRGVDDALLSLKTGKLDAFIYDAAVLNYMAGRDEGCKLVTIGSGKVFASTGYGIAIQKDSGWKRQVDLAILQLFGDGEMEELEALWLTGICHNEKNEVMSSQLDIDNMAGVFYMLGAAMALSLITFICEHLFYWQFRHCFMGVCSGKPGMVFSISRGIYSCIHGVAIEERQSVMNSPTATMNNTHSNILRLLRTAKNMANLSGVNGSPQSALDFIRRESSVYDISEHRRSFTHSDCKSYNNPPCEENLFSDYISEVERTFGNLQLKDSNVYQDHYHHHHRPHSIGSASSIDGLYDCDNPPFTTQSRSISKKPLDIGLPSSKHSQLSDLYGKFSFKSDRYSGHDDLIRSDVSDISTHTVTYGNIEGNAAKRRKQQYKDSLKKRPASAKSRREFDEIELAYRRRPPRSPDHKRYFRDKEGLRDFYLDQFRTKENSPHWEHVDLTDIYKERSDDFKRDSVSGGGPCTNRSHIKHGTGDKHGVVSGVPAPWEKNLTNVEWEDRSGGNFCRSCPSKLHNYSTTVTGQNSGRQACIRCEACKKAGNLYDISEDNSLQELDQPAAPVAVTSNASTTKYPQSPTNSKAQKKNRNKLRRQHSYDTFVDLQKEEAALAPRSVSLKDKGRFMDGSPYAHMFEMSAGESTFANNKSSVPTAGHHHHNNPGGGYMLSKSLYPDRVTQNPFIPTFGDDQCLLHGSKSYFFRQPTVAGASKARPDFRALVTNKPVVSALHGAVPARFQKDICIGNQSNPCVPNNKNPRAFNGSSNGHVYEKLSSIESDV

| Response Recovered (%) | Compound |
| --- | --- |
| 25 | O=C(Cn1cnc2scc(-c3cnc(Cl)c(C(F)(F)F)c3)c2c1=O)N1CC(F)C(F)C1 (centres unmarked) [Example 71, 5-[6-chloro-5-(trifluoromethyl)pyridin-3-yl]-3-[2-(3,4-difluoropyrrolidin-1-yl)-2-oxoethyl]-3H,4H-thieno[2,3-d]pyrimidin-4-one] |
| 21 | O=C(Cn1cnc2scc(-c3ccc(Cl)cc3)c2c1=O)N1CCC(F)C1 (centres unmarked) [Example 16, 5-(4-chlorophenyl)-3-[2-(3-fluoropyrrolidin-1-yl)-2-oxoethyl]-3H,4H-thieno[2,3-d]pyrimidin-4-one] |
| 0 | O=C(Cn1cnc2scc(-c3ccc(Cl)cc3)c2c1=O)N1CCC(O)CC1 [Example 1, 5-(4-chlorophenyl)-3-(2-(4-hydroxypiperidin-1-yl)-2-oxoethyl)thieno[2,3-d]pyrimidin-4(3H)-one] |
| 94 | O=C(Cn1cnc2scc(-c3ccc(Cl)c(Cl)c3)c2c1=O)N1CC[C@H](F)C1 [Example 69, 5-(3,4-dichlorophenyl)-3-{2-[(3S)-3-fluoropyrrolidin-1-yl]-2-oxoethyl}-3H,4H-thieno[2,3-d]pyrimidin-4-one] |
| 3 | CN1CCC(NC(=O)Cn2cnc3scc(-c4ccc(Cl)cc4)c3c2=O)C1 (centres unmarked) [Example 7, 2-[5-(4-chlorophenyl)-4-oxo-3H,4H-thieno[2,3-d]pyrimidin-3-yl]-N-(1-methylpyrrolidin-3-yl)acetamide] |
| 117 | O=C(Cn1cnc2scc(-c3ccc(Cl)c(C(F)(F)F)c3)c2c1=O)N1CC[C@@H](F)C1 [Example 64, 5-[4-chloro-3-(trifluoromethyl)phenyl]-3-{2-[(3R)-3-fluoropyrrolidin-1-yl]-2-oxoethyl}-3H,4H-thieno[2,3-d]pyrimidin-4-one] |
| −1 | O=C(COn1cnc2scc(-c3ccc(F)c(Cl)c3)c2c1=O)N1CCCC1 [Example 93, 5-(3-chloro-4-fluorophenyl)-3-[2-oxo-2-(pyrrolidin-1-yl)ethoxy]-3H,4H-thieno┌2,3-d┐pyrimidin-4-one] |
| 21 | O=C(Nn1cnc2scc(-c3ccc(Cl)c(C(F)(F)F)c3)c2c1=O)C1CCCC1 [Example 95, N-(5-(4-chloro-3-(trifluoromethyl)phenyl)-4-oxothieno[2,3-d]pyrimidin-3(4H)-yl)cyclopentanecarboxamide] |
| 10 | O=C(Cn1cnc2scc(-c3cnc(Cl)c(Cl)c3)c2c1=O)N1CCC(F)C1 (centres unmarked) [Example 63, 5-(5,6-dichloropyridin-3-yl)-3-[2-(3-fluoropyrrolidin-1-yl)-2-oxoethyl]-3H,4H-thieno[2,3-d]pyrimidin-4-one] |
| 6 | Cc1ccc(-c2csc3ncn(CC(=O)N4CCCC4C(F)(F)F)c(=O)c23)cc1 (centres unmarked) [Example 28, 5-(4-methylphenyl)-3-{2-oxo-2-[2-(trifluoromethyl)pyrrolidin-1-yl]ethyl}-3H,4H-thieno[2,3-d]pyrimidin-4-one] |
| 7 | O=C(Cn1cnc2scc(-c3cccc(Cl)c3Cl)c2c1=O)N1CCCC1 [Example 45, 5-(2,3-dichlorophenyl)-3-[2-oxo-2-(pyrrolidin-1-yl)ethyl]-3H,4H-thieno[2,3-d]pyrimidin-4-one] |
| 25 | O=C(Cn1cnc2scc(-c3ccc(Cl)cc3)c2c1=O)N1CCC(F)CC1 [Example 2, 5-(4-chlorophenyl)-3-[2-(4-fluoropiperidin-1-yl)-2-oxoethyl]-3H,4H-thieno[2,3-d]pyrimidin-4-one] |
| 27 | O=C(Cn1cnc2scc(-c3cccc(OC(F)(F)F)c3)c2c1=O)N1CCCC1 [Example 51, 3-[2-oxo-2-(pyrrolidin-1-yl)ethyl]-5-[3-(trifluoromethoxy)phenyl]-3H,4H-thieno└2,3-d┘pyrimidin-4-one] |
| 4 | COc1ccc(C(F)(F)F)cc1-c1csc2ncn(CC(=O)N3CCCC3)c(=O)c12 [Example 44, 5-[2-methoxy-5-(trifluoromethyl)phenyl]-3-[2-oxo-2-(pyrrolidin-1-yl)ethyl]-3H,4H-thieno[2,3-d]pyrimidin-4-one] |
| 43 | O=C(Cn1cnc2scc(-c3ccc(F)c(C(F)(F)F)c3)c2c1=O)N1CCCC1 [Example 47, 5-[4-fluoro-3-(trifluoromethyl)phenyl]-3-[2-oxo-2-(pyrrolidin-1-yl)ethyl]-3H,4H-thieno[2,3-d]pyrimidin-4-one] |
| 2 | O=C(CNn1cnc2scc(-c3ccc(Cl)c(C(F)(F)F)c3)c2c1=O)N1CCCC1 [Example 91, 5-(4-chloro-3-(trifluoromethyl)phenyl)-3-((2-oxo-2-(pyrrolidin-1-yl)ethyl)amino)thieno[2,3-d]pyrimidin-4(3H)-one] |
| 83 | O=C(On1cnc2scc(-c3ccc(F)c(Cl)c3)c2c1=O)N1CCC(F)C1 (centres unmarked) [Example 88, 5-(3-chloro-4-fluorophenyl)-4-oxo-3H,4H-thieno[2,3-d]pyrimidin-3-yl 3-fluoropyrrolidine-1-carboxylate] |
| 48 | O=C(On1cnc2scc(-c3ccc(F)c(Cl)c3)c2c1=O)N1CCCC1 [Example 86, 5-(3-chloro-4-fluorophenyl)-4-oxo-3H,4H-thieno[2,3-d]pyrimidin-3-yl pyrrolidine-1-carboxylate] |
| 3 | Cc1nc2scc(-c3ccc(Cl)cc3)c2c(=O)n1CC(=O)N1CCCC1C(F)(F)F (centres unmarked) [Example 99, 5-(4-chlorophenyl)-2-methyl-3-{2-oxo-2-[2-(trifluoromethyl)pyrrolidin-1-yl]ethyl}-3H,4H-thieno[2,3-d]pyrimidin-4-one] |
| 11 | O=C(Cn1cnc2scc(-c3ccc(C(F)(F)F)cc3)c2c1=O)N1CCCC1 [Example 17, 3-[2-oxo-2-(pyrrolidin-1-yl)ethyl]-5-[4-(trifluoromethyl)phenyl]-3H,4H-thieno[2,3-d]pyrimidin-4-one] |
| 93 | O=C(Cn1cnc2scc(-c3ccc(Cl)c(C(F)(F)F)c3)c2c1=O)N1CCC(F)C1 (centres unmarked) [Example 19, 5-[4-chloro-3-(trifluoromethyl)phenyl]-3-[2-(3-fluoropyrrolidin-1-yl)-2-oxoethyl]-3H,4H-thieno[2,3-d]pyrimidin-4-one] |
| 84 | O=C(Cn1cnc2scc(-c3ccc(Cl)c(Cl)c3)c2c1=O)N1C[C@@H](F)[C@@H](F)C1 [Example 67, 5-(3,4-dichlorophenyl)-3-{2-[(3R,4S)-3,4-difluoropyrrolidin-1-yl]-2-oxoethyl}-3H,4H-thieno[2,3-d]pyrimidin-4-one] |
| 10 | O=C(Cn1cnc2scc(-c3ccc(C(F)(F)F)cc3F)c2c1=O)N1CCCC1 [Example 38] |
| 33 | O=C(Cn1cnc2scc(-c3cccc(C(F)(F)F)c3)c2c1=O)N1CCCC1 [Example 55, 3-[2-oxo-2-(pyrrolidin-1-yl)ethyl]-5-[3-(trifluoromethyl)phenyl]-3H,4H-thieno[2,3-d]pyrimidin-4-one] |
| 14 | CC(C)(C)c1ccc(-c2csc3ncn(CC(=O)N4CCCC4)c(=O)c23)cc1 [Example 35, 5-(4-tert-butylphenyl)-3-[2-oxo-2-(pyrrolidin-1-yl)ethyl]-3H,4H-thieno[2,3-d]pyrimidin-4-one] |
| 5 | O=C(Cn1cnc2scc(-c3ccc(F)cc3Cl)c2c1=O)N1CCCC1 [Example 53, 5-(2-chloro-4-fluorophenyl)-3-[2-oxo-2-(pyrrolidin-1-yl)ethyl]-3H,4H-thieno└2,3-d┘pyrimidin-4-one] |
